Reference: PMC8122972, “Methoxy-Substituted Tyramine Derivatives Synthesis, Computational Studies and Tyrosinase Inhibitory Kinetics” (Molecules, 2021)
Where “and” joins values, the source holds several entries; their conditions need not be identical. Identical values can stand only once. Entries after “also recorded” stand apart in the source; their conditions may differ. Like-named read-outs stand apart in the source and are kept apart here. Blank lines part the entries; values can stand above or below the compound they belong to.

Assays:
human tyrosinase = target: T1, human tyrosinase (Homo sapiens, UniProt P14679); assay: Human tyrosinase inhibition assay (enzyme prepared from A375 human melanoma cells); assay type: biochemical; conditions: L-DOPA, 50 µg/mL (b9)
T1 construct: endogenous in cells; host or cells: A375 human melanoma cells (ATCC), induced with L-tyrosine; sonicated pellet, 10,000 x g supernatant
T1 sequence (P14679 19-529): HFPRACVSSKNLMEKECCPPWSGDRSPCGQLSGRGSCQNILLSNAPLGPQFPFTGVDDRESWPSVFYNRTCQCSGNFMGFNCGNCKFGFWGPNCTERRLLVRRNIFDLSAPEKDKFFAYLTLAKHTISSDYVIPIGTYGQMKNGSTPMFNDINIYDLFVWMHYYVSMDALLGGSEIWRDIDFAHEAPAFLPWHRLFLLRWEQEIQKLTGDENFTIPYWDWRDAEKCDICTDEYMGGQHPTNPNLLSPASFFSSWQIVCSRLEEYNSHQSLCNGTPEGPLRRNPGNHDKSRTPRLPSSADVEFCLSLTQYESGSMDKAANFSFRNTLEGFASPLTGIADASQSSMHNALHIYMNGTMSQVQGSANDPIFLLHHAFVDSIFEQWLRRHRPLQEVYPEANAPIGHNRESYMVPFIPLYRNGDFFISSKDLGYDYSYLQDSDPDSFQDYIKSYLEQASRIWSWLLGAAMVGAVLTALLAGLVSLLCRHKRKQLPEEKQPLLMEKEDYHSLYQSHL
Protocol: A375 human melanoma cells were obtained from American Type Culture Collection (ATCC; Rockville, MD, USA). A375 cells were grown in Dulbecco’s modified Eagle’s medium (DMEM; Invitrogen, Burlington, ON, Canada) supplemented with L-glutamine, 10% (v/v) fetal bovine serum (FBS; Invitrogen), 50 µg/mL streptomycin (Sigma Aldrich, St. Louis, MO, USA), 50 units/mL penicillin (Sigma Aldrich) and supplemented with 200 µM of L-tyrosine for tyrosinase induction. Cell cultures were incubated at 37 °C, in a humidified atmosphere of 5% CO2. Cells were scraped out from the tissue culture plate with phosphate-buffer saline (PBS) and were homogenized at 4 °C in PBS. The homogenate was centrifuged at 1000× g for 10 min. The precipitate was sonicated in PBS on ice and the mixture was centrifuged at 10,000× g for 30 min. The supernatant containing tyrosinase was used for the measurement of the inhibitory effects.
The assay reaction mixture (200 µL) contained 3.3 mM L-DOPA in 0.33 M phosphate buffer (pH 7.0) and the enzyme in the presence and absence of inhibitors. Fifteen or twenty units of tyrosinase were used to determine the % inhibition. The reaction mixture was incubated at 37 °C for 10 min and the absorbance was recorded at 475 nm using a microplate reader (OPTI Max, Tunable). One unit of the enzyme was defined as the amount of enzyme which increases the absorbance value by 0.001 at 475 per minute under the same conditions as described above.

mushroom tyrosinase [1] = target: T2, mushroom tyrosinase (Agaricus bisporus, UniProt C7FF04); assay: In vitro mushroom tyrosinase inhibition assay (L-DOPA, dopachrome at 475 nm); assay type: biochemical
T2 construct: purchased Sigma Aldrich (St. Louis, MO, USA)
Target sequence in this assay (C7FF04 1-392 limits assumed): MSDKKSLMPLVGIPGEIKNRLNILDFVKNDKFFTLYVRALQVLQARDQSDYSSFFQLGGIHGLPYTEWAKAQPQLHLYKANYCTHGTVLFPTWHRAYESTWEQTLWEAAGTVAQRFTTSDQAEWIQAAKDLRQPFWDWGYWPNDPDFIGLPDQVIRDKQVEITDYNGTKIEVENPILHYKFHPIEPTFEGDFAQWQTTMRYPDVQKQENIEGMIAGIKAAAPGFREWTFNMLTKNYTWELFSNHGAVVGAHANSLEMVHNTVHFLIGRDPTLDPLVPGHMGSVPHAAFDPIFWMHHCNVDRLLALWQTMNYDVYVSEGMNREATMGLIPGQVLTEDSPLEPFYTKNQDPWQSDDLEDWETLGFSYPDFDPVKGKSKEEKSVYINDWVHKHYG
Protocol: In vitro mushroom tyrosinase (Sigma Aldrich, St. Louis, MO, USA) inhibition assay was performed, following our already reported method [52]. In detail, 140 µL of phosphate buffer (20 mM, pH 6.8), 20 µL of mushroom tyrosinase (30 U/mL) and 20 µL of the inhibitor solution were placed in the wells of a 96-well microplate. After pre-incubation for 10 min at room temperature, 20 µL of L-DOPA (3,4-dihydroxyphenylalanine, Sigma Aldrich, St. Louis, MO, USA) (0.85 mM) was added and the assay plate was further incubated at 25 °C for 20 min. Afterward the absorbance of dopachrome was measured at 475 nm using a microplate reader (OPTIMax, Tunable, Sunnyvale, CA, USA). All of the compounds were dissolved in DMSO and blank tests were performed with solvent DMSO. The IC50 values were reported after subtracting the value of DMSO. […] Each concentration was analyzed in three independent experiments. The IC50 values were determined by the data analysis and graphing software Origin 8.6, 64-bit.
The tyrosinase %age inhibition was determined by using the following formula:Inhibition (%) = [(B − S)/B] × 100(1)
Here, the absorbance of the blank and inhibitor are represented by B and S respectively.

tyrosinase = target: tyrosinase; parameters: method as in PMID 24191339; conditions: cited from earlier work
mushroom tyrosinase [2] = target: T2, mushroom tyrosinase; assay: Kinetic analysis of the inhibition of mushroom tyrosinase (Lineweaver-Burk plots); assay type: biochemical; conditions: for Inhibition Type: Lineweaver-Burk plots; for Ki: secondary plot of slope
Protocol: Among the synthesized Ph derivatives Ph5, Ph6 and Ph9 were selected to determine their inhibition type and inhibition constants on mushroom tyrosinase activity. The potential of these derivatives to inhibit the free enzyme and enzyme–substrate complex was determined in terms of enzyme inhibitor (EI) and enzyme–substrate-inhibitor (ESI) constants respectively. […] Meanwhile, in the case of compound Ph6, the Lineweaver–Burk plot gave a family of straight lines, all of which intersected at the same point on the x-axis Figure 2A. […] It is worth mentioning here that the enzyme inhibitory kinetics were performed with a more efficient natural substrate L-DOPA (L-3,4-dihydroxyphenylalanine). Ph5 is a 3,5-dihydroxyl-substituted benzoic acid derivative and Ph9 is 2,4-dihydroxyl-substituted cinnamic acid derivative whereas, Ph6 is an unsubstituted cinnamic acid analogue.
A series of experiments were performed to calculate the inhibitory kinetics of compounds Ph5, Ph6 and Ph9 by following the already reported method. […] The concentration of substrate L-DOPA was between 0.125 to 2 mM in all kinetic studies. Pre-incubation time and measurement time were the same as discussed in mushroom tyrosinase inhibition assay protocol. Maximal initial velocity was determined from initial linear portion of absorbance up to five minutes after addition of enzyme at a 30 s interval. The inhibition type on the enzyme was determined by Lineweaver–Burk plots of inverse velocities (1/V) versus the inverse of substrate concentration 1/[S] mM^−1.
Target sequence in this assay (C7FF04 1-392): as the sequence (C7FF04 1-392 limits assumed) above

[3] = substrate L-DOPA, pH 6.8, 25 °C, read-out: Mushroom Tyrosinase IC50 ± SEM
[4] = mushroom tyrosinase, L-DOPA, read-out: Ki (enzyme inhibitor constant)

inhibition (human tyrosinase): 82.2 ± 7.04%
IC50 (mushroom tyrosinase [1]; [3]): 329 ± 21 nM
SMILES: COc1ccc(CCNC(=O)COC(=O)c2ccc(O)c(O)c2)cc1 [Ph4, 2-((4-methoxyphenethyl)amino)-2-oxoethyl 3,4-dihydroxybenzoate]

inhibition (human tyrosinase): 73 ± 5.35%
IC50 (mushroom tyrosinase [1]; [3]): 463 ± 17 nM
SMILES: COc1ccc(CCNC(=O)COC(=O)c2ccc(O)cc2)cc1 [Ph2, 2-((4-methoxyphenethyl)amino)-2-oxoethyl 4-hydroxybenzoate]

inhibition (human tyrosinase): 79.2 ± 5.95%
IC50 (mushroom tyrosinase [1]; [3]): 452 ± 17.1 nM
SMILES: COc1ccc(CCNC(=O)COC(=O)/C=C/c2ccc(Cl)cc2)cc1 [Ph10, 2-((4-methoxyphenethyl)amino)-2-oxoethyl (E)-3-(4-chlorophenyl)acrylate]

inhibition (human tyrosinase): 85.6 ± 6.04%
IC50 (mushroom tyrosinase [1]; [3]): 104 ± 3.8 nM
melting point: 111 to 113 °C
SMILES: COc1ccc(CCNC(=O)COC(=O)/C=C/c2ccccc2O)cc1 [Ph7, 2-((4-methoxyphenethyl)amino)-2-oxoethyl (E)-3-(2-hydroxyphenyl)acrylate]

SMILES: O=c1oc2c(O)c(O)cc3c(=O)oc4c(O)c(O)cc1c4c23 [ellagic acid]
Tyrosinase inhibitory activity IC50 (tyrosinase; substrate L-DOPA): 151.1 µg/mL

SMILES: O=c1c(O)c(-c2ccc(O)c(O)c2)oc2cc(O)c(O)c(O)c12 [quercetagetin]
Tyrosinase inhibitory activity IC50 (tyrosinase; substrate L-DOPA): 128.41 µg/mL
Tyrosinase inhibitory activity IC50 (tyrosinase; substrate L-tyrosine): 89.31 µg/mL

SMILES: COc1ccc(CCNC(=O)COC(=O)/C=C/c2ccc(O)cc2O)cc1 [Ph9, 2-((4-methoxyphenethyl)amino)-2-oxoethyl(E)-3-(2,4-dihydroxyphenyl)acrylate]
Vmax (mushroom tyrosinase [2]; inhibitor dose 0.00003 µM): 4.666 × 10^−6 ∆A/s
Vmax (mushroom tyrosinase [2]; inhibitor dose 0.00012 µM): 2.666 × 10^−6 ∆A/s
Vmax (mushroom tyrosinase [2]; inhibitor dose 0.00015 µM): 4.285 × 10^−6 ∆A/s
Inhibition Type (mushroom tyrosinase [2]; mushroom tyrosinase, L-DOPA): mixed-type inhibition
Ki (mushroom tyrosinase [2]; [4]): 0.09 nM and 0.093 nM
Human Tyrosinase (% Inhibition) (human tyrosinase): 94.59 ± 8.071%
inhibition at 50 µg/mL (human tyrosinase): 94.6%
IC50 (mushroom tyrosinase [1]; read-out: Mushroom tyrosinase IC50): 0.059 nM
IC50 (mushroom tyrosinase [1]; [3]): 0.06 nM and 0.059 nM and 0.0595 nM

SMILES: COc1ccc(CCNC(=O)COC(=O)C=Cc2ccccc2)cc1 [Ph6, 2-((4-methoxyphenethyl)amino)-2-oxoethyl cinnamate]
Ki (mushroom tyrosinase [2]; Ki (enzyme inhibitor constant), mushroom tyrosinase, L-DOPA): 2.3 nM
Vmax (mushroom tyrosinase [2]; inhibitor dose 0.001 µM): 7.060 × 10^−6 ∆A/s
Vmax (mushroom tyrosinase [2]; inhibitor dose 0.002 µM): 6.929 × 10^−6 ∆A/s
Inhibition Type (mushroom tyrosinase [2]; mushroom tyrosinase, L-DOPA): non-competitive inhibitor; also recorded: non-competitive inhibition
Human Tyrosinase (% Inhibition) (human tyrosinase): 92.24 ± 7.985%
inhibition at 50 µg/mL (human tyrosinase): 92.2%
IC50 (mushroom tyrosinase [1]; Mushroom Tyrosinase IC50 ± SEM, substrate L-DOPA, pH 6.8, 25 °C): 2.04 ± 0.087 nM
IC50 (mushroom tyrosinase [1]; Mushroom tyrosinase IC50, as printed in the abstract): 2.1 nM
melting point: 103 to 105 °C

inhibition (human tyrosinase): 75.6 ± 5.65%
IC50 (mushroom tyrosinase [1]; [3]): 4070 ± 154 nM
SMILES: COc1ccc(CCNC(=O)COC(=O)c2cccc(O)c2)cc1 [Ph1, 2-((4-methoxyphenethyl)amino)-2-oxoethyl 3-hydroxybenzoate]

SMILES: COc1ccc(CCNC(=O)COC(=O)c2cc(O)cc(O)c2)cc1 [Ph5, 2-((4-methoxyphenethyl)amino)-2-oxoethyl 3,5-dihydroxybenzoate]
Vmax (mushroom tyrosinase [2]; inhibitor dose 0.2 µM): 8.266 × 10^−6 ∆A/s
Vmax (mushroom tyrosinase [2]; inhibitor dose 0.4 µM): 5.242 × 10^−6 ∆A/s
Inhibition Type (mushroom tyrosinase [2]; mushroom tyrosinase, L-DOPA): mixed-type inhibition
Ki′ (enzyme substrate inhibitor constant) (mushroom tyrosinase [2]; mushroom tyrosinase, L-DOPA, secondary plot of intercept): 475 nM
Ki (mushroom tyrosinase [2]; [4]): 219 nM
inhibition (human tyrosinase): 64.8 ± 3.84%
IC50 (mushroom tyrosinase [1]; [3]): 231 ± 7.8 nM

inhibition (human tyrosinase): 86.3 ± 6.54%
IC50 (mushroom tyrosinase [1]; [3]): 923 ± 53 nM
melting point: 119 to 121 °C
SMILES: COc1ccc(CCNC(=O)COC(=O)/C=C/c2ccc(O)cc2)cc1 [Ph8, 2-((4-methoxyphenethyl)amino)-2-oxoethyl(E)-3-(4-hydroxyphenyl)acrylate]

inhibition (human tyrosinase): 79.7 ± 6.61%
IC50 (mushroom tyrosinase [1]; [3]): 839 ± 38.1 nM
SMILES: COc1ccc(CCNC(=O)COC(=O)c2ccc(O)cc2O)cc1 [Ph3, 2-((4-methoxyphenethyl)amino)-2-oxoethyl 2,4-dihydroxybenzoate]
